# Experiments:
# Type in all cases: functional
# Escherichia coli [1] = test: Antimicrobial activity against CTX-M ESBL producing isolate of Escherichia coli at 30 ug by double-disk diffusion method; conditions: read-out: DIZ
# Klebsiella pneumoniae = test: Antimicrobial activity against CTX-M ESBL producing isolate of Klebsiella pneumoniae at 30 ug by double-disk diffusion method; conditions: read-out: DIZ
# Klebsiella oxytoca = test: Antimicrobial activity against CTX-M ESBL producing isolate of Klebsiella oxytoca at 30 ug by double-disk diffusion method; conditions: read-out: DIZ
# Escherichia coli [2] = test: Antimicrobial activity against non-CTX-M ESBL producing isolate of Escherichia coli by double-disk diffusion method
SMILES,zone of inhibition at 30 µg/disc (Escherichia coli [1]),zone of inhibition at 30 µg/disc (Klebsiella pneumoniae),zone of inhibition at 30 µg/disc (Klebsiella oxytoca),diameter of the inhibition zone (DIZ) (Escherichia coli [2])
CC(C)(O/N=C(\C(=O)N[C@@H]1C(=O)N2C(C(=O)[O-])=C(C[n+]3ccccc3)CS[C@H]12)c1csc(N)n1)C(=O)O [CEFTAZIDIME],15.9 mm,9.8 mm,9.2 mm,17.3 mm
CO/N=C(\C(=O)N[C@@H]1C(=O)N2C(C(=O)O)=C(COC(C)=O)CS[C@H]12)c1csc(N)n1 [CEFOTAXIME],8.8 mm,10.8 mm,16.8 mm,21 mm

# From ChEMBL document CHEMBL1137653, “First report of the emergence of CTX-M-type extended-spectrum beta-lactamases (ESBLs) as the predominant ESBL isolated in a U.S. health care system” (2007)
